Assay results from patent publication US4605744A, “Imidazole derivatives” (Hoffmann-La Roche Inc., priority 1985, dated 1986).
Structures can show the parent of a compound that is named as a salt. Where two headings read alike, the source gives them in different places.

Tests used:
Assay in all cases: In vitro antibacterial activity (MIC)
Type in all cases: cell-based
[1] = test system: C. freundii 8ASM; details: Citrobacter freundii, 8ASM
Experimental: (§1) Drug dilutions are prepared in Mueller-Hinton broth ranging from 128 to 0.008 μg/ml. The diluted agents are dispensed in 100 μl amounts into the wells of a 96-well tray and used immediately or frozen at -10° to -70° C. until needed. Using an automated inoculator, 1.5 μl of a 10^-2 dilution of an overnight culture is added to each well of the tray. The tops of the trays are then sealed using transparent tape and incubated overnight at 37° C. The trays are examined with the aid of a viewer. The lowest concentration at which no growth is observed is considered to be the minimum inhibitory concentration (MIC).

[2] = test system: C. freundii CDC6; details: Citrobacter freundii, CDC6, C. freundii CDC6; read-out: MIC
Experimental: as §1

[3] = test system: E. aerogenes 503-478; details: Klebsiella aerogenes, 503478, E. aerogenes 503-478; read-out: MIC
Experimental: as §1

[4] = test system: E. aerogenes 83
Experimental: as §1

[5] = test system: E. aerogenes 8
Experimental: as §1

[6] = test system: E. cloacae 24; details: Enterobacter cloacae, 24, E. cloacae 24; read-out: MIC
Experimental: as §1

[7] = test system: E. cloacae 6951
Experimental: as §1

[8] = test system: E. cloacae 9570A; details: Enterobacter cloacae
Experimental: as §1

[9] = test system: E. coli 387-1; details: Escherichia coli, 3871, E. coli 387-1; read-out: MIC
Experimental: as §1

[10] = test system: E. coli 4; details: Escherichia coli, 4, E. coli 4; read-out: MIC
Experimental: as §1

[11] = test system: E. coli 503-455
Experimental: as §1

[12] = test system: E. coli R-563; details: Escherichia coli, R563, E. coli R-563; read-out: MIC
Experimental: as §1

[13] = test system: K. pneumoniae 35
Experimental: as §1

[14] = test system: K. pneumoniae 4964
Experimental: as §1

[15] = test system: K. pneumoniae 503-964
Experimental: as §1

[16] = test system: K. pneumoniae 5096; details: Klebsiella pneumoniae; K. pneumoniae 5096; read-out: MIC
Experimental: as §1

[17] = test system: K. pneumoniae 8357
Experimental: as §1

[18] = test system: K. pneumoniae A; details: Klebsiella pneumoniae
Experimental: as §1

[19] = test system: K. pneumoniae HE7; details: Klebsiella pneumoniae; K. pneumoniae HE7; read-out: MIC
Experimental: as §1

[20] = test system: P. aeruginosa 503-56; details: Pseudomonas aeruginosa, 50356, P. aeruginosa 503-56; read-out: MIC
Experimental: as §1

[21] = test system: P. aeruginosa 8710; details: Pseudomonas aeruginosa; P. aeruginosa 8710; read-out: MIC
Experimental: as §1

[22] = test system: P. aeruginosa POW 151; details: Pseudomonas aeruginosa, POW151
Experimental: as §1

[23] = test system: P. aeruginosa Stone 130; details: Pseudomonas aeruginosa, STONE130, read-out: MIC
Experimental: as §1

[24] = test system: P. mirabilis 190; details: Proteus mirabilis, 190, P. mirabilis 190; read-out: MIC
Experimental: as §1

[25] = test system: P. mirabilis 503-1136; details: Proteus mirabilis, 5031136, P. mirabilis 503-1136; read-out: MIC
Experimental: as §1

[26] = test system: P. mirabilis 620A; details: Proteus mirabilis, 620A, P. mirabilis 620A; read-out: MIC
Experimental: as §1

[27] = test system: P. rettgeri ATCC 9250; details: Providencia rettgeri, ATCC9250, P. rettgeri ATCC 9250; read-out: MIC
Experimental: as §1

[28] = test system: P. vulgaris 101; details: Proteus vulgaris, 101, P. vulgaris 101; read-out: MIC
Experimental: as §1

[29] = test system: P. vulgaris ATCC 6380; details: Proteus vulgaris, ATCC6380, P. vulgaris ATCC 6380; read-out: MIC
Experimental: as §1

[30] = test system: S. aureus 1059B; details: Staphylococcus aureus, read-out: MIC
Experimental: as §1

[31] = test system: S. aureus Smith; details: Staphylococcus aureus, S. aureus Smith; read-out: MIC
Experimental: as §1

[32] = test system: S. faecalis C1; details: Enterococcus faecalis; S. faecalis C1; read-out: MIC
Experimental: as §1

[33] = test system: S. marcescens 5805; details: Serratia marcescens, 5805, S. marcescens 5805; read-out: MIC
Experimental: as §1

[34] = test system: S. marcescens S147; details: Serratia marcescens; S. marcescens S147; read-out: MIC
Experimental: as §1

[35] = test system: S. marcescens S1; details: Serratia marcescens, S1, S. marcescens S1; read-out: MIC
Experimental: as §1

[36] = test system: S. marcescens S2; details: Serratia marcescens; S. marcescens S2; read-out: MIC
Experimental: as §1

[37] = test system: S. marcescens S3; details: Serratia marcescens; S. marcescens S3; read-out: MIC
Experimental: as §1

[38] = test system: S. marcescens S4; details: Serratia marcescens, S4, S. marcescens S4; read-out: MIC
Experimental: as §1

[39] = test system: S. marcescens SM; details: Serratia marcescens, read-out: MIC
Experimental: as §1

[40] = test system: S. pneumoniae 6301; details: Streptococcus pneumoniae, 6301, S. pneumoniae 6301; read-out: MIC
Experimental: as §1

[41] = test system: S. pneumoniae SC; details: Streptococcus pneumoniae, read-out: MIC
Experimental: as §1

[42] = test system: S. pyogenes 4; details: Streptococcus pyogenes, 4, S. pyogenes 4; read-out: MIC
Experimental: as §1

[43] = test system: S. pyogenes 503-782; details: Streptococcus pyogenes, 503782; S. pyogenes 503-782; read-out: MIC
Experimental: as §1

[44] = test system: S. typhi P58A; details: Salmonella enterica, TYPHI
Experimental: as §1

[45] = C. freundii 8ASM, read-out: MIC
[46] = Klebsiella aerogenes, E. aerogenes 8, read-out: MIC
[47] = Enterobacter cloacae, 6951, E. cloacae 6951, read-out: MIC
[48] = Escherichia coli, 503455, E. coli 503-455, read-out: MIC
[49] = Klebsiella pneumoniae, K. pneumoniae 35, read-out: MIC
[50] = Klebsiella pneumoniae, 503964, K. pneumoniae 503-964, read-out: MIC

Measured: MIC

Cc1nccn1CCCC1CCN(C=N[C@@H]2C(=O)N3[C@@H]2SC(C)(C)[C@@H]3C(=O)O)CC1 [F, [2S-(2alpha,5alpha,6beta)]-3,3-dimethyl-6-[[[4-[3-(2-methyl-1H-imidazol-1-yl)propyl]-1-piperidinyl]methylene]amino]-7-oxo-4-thia-1-azabicyclo[3.2.0]heptane-2-carboxylic acid 1.15 molar hydrochloride 1.75 molar hydrate]
32 µg/mL: [5]; [46] | [14]; Klebsiella pneumoniae, 4964
> 128 µg/mL: [19] | [20] | [21] | [22] | [23]
8 µg/mL: [7]; [47] | [25] | [31]
1 µg/mL: [17]; Klebsiella pneumoniae, 8357 | [40] | [41]
0.031 µg/mL: [18]; K. pneumoniae A, read-out: MIC
0.125 µg/mL: [9] | [13]; [49] | [39]
2 µg/mL: [11]; [48] | [38]
0.5 µg/mL: [33] | [35] | [42]
16 µg/mL: [4]; Klebsiella aerogenes, 83 | [26] | [28]
0.062 µg/mL: [1]; [45] | [2] | [10] | [12] | [44]
128 µg/mL: [32] | [43]
4 µg/mL: [3] | [15]; Klebsiella pneumoniae, 503964, K. pneumoniae 503-964
0.25 µg/mL: [6] | [8]; 9570A | [24] | [27] | [29] | [34] | [36] | [37]
64 µg/mL: [16] | [30]

CCc1nc(C)cn1CCCC1CCN(C=N[C@@H]2C(=O)N3[C@@H]2SC(C)(C)[C@@H]3C(=O)O)CC1 [G, [2S-(2alpha,5alpha,6beta)]-6-[[[4-[3-(2-ethyl-4methyl-1H-imidazol-1-yl)propyl]piperidinyl]methylene]amino]-3,3-dimethyl-7-oxo-4-thia-1-azabicyclo[3.2.0]heptane-2-carboxylic acid hydrochloride]
64 µg/mL: [26]
4 µg/mL: [11]; [48] | [33]
> 128 µg/mL: [19] | [20] | [21] | [22] | [23]
128 µg/mL: [16] | [30] | [32] | [43]
0.25 µg/mL: [2] | [9] | [10] | [12] | [29] | [44]
0.062 µg/mL: [15]; [50]
2 µg/mL: [14]; Klebsiella pneumoniae, 4964 | [38]
0.125 µg/mL: [1] | [18]
16 µg/mL: [5]; [46] | [7]; [47] | [25] | [28]
1 µg/mL: [17]; Klebsiella pneumoniae, 8357 | [27] | [34] | [35] | [36] | [37] | [39] | [40] | [41] | [42]
0.5 µg/mL: [4]; Klebsiella aerogenes, 83, E. aerogenes 83, read-out: MIC | [6] | [8]; read-out: MIC | [13]; Klebsiella pneumoniae, 35, K. pneumoniae 35 | [24]
8 µg/mL: [3] | [31]

CC1(C)S[C@@H]2[C@H](N=CN3CCC(Cn4ccnc4N)CC3)C(=O)N2[C@H]1C(=O)O [H, [2S-(2alpha,5alpha,6beta)]-6-[[[4-[(2-amino-1H-imidazol-1-yl)methyl-1-piperidinyl]methylene]amino]-3,3-dimethyl-7-oxo-4-thia-1-azabicyclo[3.2.0]heptane-2-carboxylic acid hydrochloride]
32 µg/mL: [5]; Klebsiella aerogenes, 8, E. aerogenes 8 | [20]
0.25 µg/mL: [6] | [8]; read-out: MIC | [13]; [49] | [27]
0.5 µg/mL: [33] | [38]
4 µg/mL: [7]; Enterobacter cloacae, 6951 | [25]
0.031 µg/mL: [1]; [45] | [18]; K. pneumoniae A, read-out: MIC | [34]
8 µg/mL: [3] | [28] | [31]
16 µg/mL: [4]; Klebsiella aerogenes, 83 | [26]
64 µg/mL: [14]; Klebsiella pneumoniae, 4964, K. pneumoniae 4964, read-out: MIC | [16] | [32] | [43]
128 µg/mL: [19] | [21] | [30]
> 128 µg/mL: [22] | [23]
0.125 µg/mL: [9] | [15]; [50] | [17]; Klebsiella pneumoniae, 8357, K. pneumoniae 8357, read-out: MIC | [24] | [35] | [37] | [39]
0.062 µg/mL: [2] | [10] | [12] | [29] | [36] | [44]
1 µg/mL: [11]; Escherichia coli, 503455 | [40] | [41] | [42]
